Assay results from patent US20190300882A1, “METHODS OF TREATING NEUROBLASTOMA AND REAGENTS THEREFOR” (GARVAN INSTITUTE OF MEDICAL RESEARCH, priority 2016, published 2019).

Legend:
Format in all cases: cell-based
[1] = tested on: KELLY cells; assay: Primary functional miRNA mimic screen, CellTiter-Glo cell viability; details: miRNA mimic 25 nM alone, 144 hours post-transfection
Description: Breast cancer cell lines (MDA-MB-231, MDA-MB-468, SK-BR-3; BT474) and prostate cancer cell lines (PC3, DU145) were obtained from American Type Culture Collection (ATCC). Neuroblastoma cell lines (KELLY, SHEP) were received from Children's Cancer Institute (CCIA). The KELLY cells were selected as a MYCN amplified neuroblastoma cell line and the SHEP cells were selected as a MYCN wild-type neuroblastoma cell line. All breast and prostate cancer cell lines were cultivated in RPMI media supplemented with 10% FCS, HEPES, and insulin. […] Each of the cell lines were reverse transfected in 384-well plate format with 25 nM of a miRNA from the Dharmacon miRNA mimic or inhibitor libraries (version 16.0) using liquid-handling robot Calliper Sciclone ALH3000 according to the conditions described in Table 3. […] Luminescence measurements were taken on the Synergy H4 high-throughput multimode microplate reader. All screens were performed in duplicates. Raw viability was normalised to a nontargeting control (OTP) or mock wells, and death genes or controls inducing varying levels of death were used to monitor transfection efficiency and to define dynamic range in each screen (FIG. 1). To define screen hits, normalised viability scores were binned in the following manner: CV1 bin included candidates with viability >=0.8; […] Only LC candidates were defined as screen hits.

[2] = tested on: SHEP cells; assay: as above; details: miRNA mimic 25 nM alone, 144 hours post-transfection
Description: Breast cancer cell lines (MDA-MB-231, MDA-MB-468, SK-BR-3; BT474) and prostate cancer cell lines (PC3, DU145) were obtained from American Type Culture Collection (ATCC). Neuroblastoma cell lines (KELLY, SHEP) were received from Children's Cancer Institute (CCIA). The KELLY cells were selected as a MYCN amplified neuroblastoma cell line and the SHEP cells were selected as a MYCN wild-type neuroblastoma cell line.
All breast and prostate cancer cell lines were cultivated in RPMI media supplemented with 10% FCS, HEPES, and insulin. The neuroblastoma cell lines, KELLY, SHEP, were grown in 10% FCS/RPMI and 10% FCS/DMEM, respectively.
(§1) Each of the cell lines were reverse transfected in 384-well plate format with 25 nM of a miRNA from the Dharmacon miRNA mimic or inhibitor libraries (version 16.0) using liquid-handling robot Calliper Sciclone ALH3000 according to the conditions described in Table 3. After 24 hours, media was changed using BioTek 406, and 144 hours post-transfection, cell viability was determined using CellTiter-Glo luminescent assay (Promega) at 1:2 dilution. Luminescence measurements were taken on the Synergy H4 high-throughput multimode microplate reader. All screens were performed in duplicates.
Raw viability was normalised to a nontargeting control (OTP) or mock wells, and death genes or controls inducing varying levels of death were used to monitor transfection efficiency and to define dynamic range in each screen (FIG. 1). To define screen hits, normalised viability scores were binned in the following manner: CV1 bin included candidates with viability >=0.8; CV2 bin included candidates with viability <0.8 and >0.5, and LC bin was assigned to candidates with normalised viability <=0.5. Only LC candidates were defined as screen hits.

[3] = tested on: KELLY cells; assay: Secondary validation screen of lethal miRNAs, cell viability; details: miRNA mimic alone
Method: as §1
(§2) The secondary validation screens were performed in accordance with the genome-wide screens described in Example 1 and Example 2, respectively, with the exception that an additional MYCN-amplified neuroblastoma cell line (SK-N-DZ) was added to each screen.
(§3) Furthermore, five additional non-active miRNAs discovered to have no measureable effect across all treatment groups of the genome-wide screen (‘non-lethal’ miRNAs) were included as negative controls.

[4] = tested on: SHEP cells; assay: as above; details: miRNA mimic alone
Method: as §1, §2, §3

[5] = tested on: SK-N-DZ MYCN-amplified neuroblastoma cell line; assay: Secondary validation screen of lethal miRNAs, additional cell line, cell viability; details: miRNA mimic alone
Method: as §1, §2, §3

[6] = tested on: RBFOX2 mRNA; assay: qPCR of target mRNA in KELLY cells transfected with miRNA mimic; details: 25 nM mimic, 96 h after transfection
Method: (§4) KELLY cells were transfected with let-7b-5p, miR-101-3p, and miR-202-3p mimics and real-time PCR performed to determine any changes in mRNA expression levels of HAND1, RGS16, RBFOX2, and ACVR2B. Briefly, KELLY cells were grown in 10% FCS/RPMI and transfected with 25 nM of let-7b-5p, miR-101-3p or miR-202-3p mimic using Dharmafect 1 (DF1) transfection reagent. 96 h after transfection, the cells were harvested and total RNA was extracted using miRneasy kit (Qiagen). RNA was then subjected to reverse transcription to generate cDNA. Quantification of gene expression was then performed using qPCR and Taqman probes and primers for HAND1, RGS 16, RBFOX2, and ACVR2B. The levels of gene expression for HAND1, RGS16, RBFOX2, and ACVR2B were normalised to the housekeeping genes B2M and GAPDH

[7] = tested on: RGS16 mRNA; assay: as above; details: 25 nM mimic, 96 h after transfection
Method: as §4

| Substance | Primary screen Viability (% of control) KELLY [1] | Primary screen Viability (% of control) SHEP [2] | Secondary screen Viability (% of control) KELLY [3] | Secondary screen Viability (% of control) SHEP [4] | Additional cell line Viability (% of control) SKNDZ [5] | RBFOX2 mRNA levels [6] | RGS16 mRNA levels [7] |
| --- | --- | --- | --- | --- | --- | --- | --- |
| hsa-miR-101-3p (UACAGUACUGUGAUAACUGAA; chemistry not given here; listed as Homo sapiens) | 6 % of control | 58 % of control | 7 % of control | 69 % of control | 72 % of control | did not affect | did not affect |
| hsa-miR-103a-2-5p (AGCUUCUUUACAGUGCUGCCUUG; chemistry not given here; listed as Homo sapiens) | 26 % of control | 46 % of control | 39 % of control | 56 % of control | 52 % of control | – | – |
| hsa-miR-550a-3p (guide UGUCUUACUCCCUCAGGCACAU; chemistry not given here; listed as Homo sapiens) | 4 % of control | 61 % of control | 15 % of control | 94 % of control | 82 % of control | – | – |
| hsa-miR-542-3p (guide UGUGACAGAUUGAUAACUGAAA; chemistry not given here; listed as Homo sapiens) | 6 % of control | 29 % of control | 20 % of control | 38 % of control | 28 % of control | – | – |
| hsa-miR-491-3p (guide CUUAUGCAAGAUUCCCUUCUAC; chemistry not given here; listed as Homo sapiens) | 12 % of control | 26 % of control | 12 % of control | 34 % of control | 47 % of control | – | – |
| hsa-miR-634 (guide AACCAGCACCCCAACUUUGGAC; chemistry not given here; listed as Homo sapiens) | 7 % of control | 8 % of control | 13 % of control | 12 % of control | 41 % of control | – | – |
| hsa-miR-148b-5p (AAGUUCUGUUAUACACUCAGGC; chemistry not given here; listed as Homo sapiens) | 5 % of control | 20 % of control | 8 % of control | 34 % of control | 21 % of control | – | – |
| hsa-miR-517c-3p (guide AUCGUGCAUCCUUUUAGAGUGU; chemistry not given here; listed as Homo sapiens) | 26 % of control | 40 % of control | 27 % of control | 43 % of control | 21 % of control | – | – |
| hsa-miR-1262 (AUGGGUGAAUUUGUAGAAGGAU; chemistry not given here; listed as Homo sapiens) | 8 % of control | 31 % of control | 8 % of control | 42 % of control | 13 % of control | – | – |
| hsa-miR-654-5p (guide UGGUGGGCCGCAGAACAUGUGC; chemistry not given here; listed as Homo sapiens) | 6 % of control | 30 % of control | 7 % of control | 45 % of control | 28 % of control | – | – |
| hsa-miR-552 (guide AACAGGUGACUGGUUAGACAA; chemistry not given here; listed as Homo sapiens) | 2 % of control | 36 % of control | 2 % of control | 47 % of control | 36 % of control | – | – |
| hsa-miR-1231 (GUGUCUGGGCGGACAGCUGC; chemistry not given here; listed as Homo sapiens) | 36 % of control | 15 % of control | 48 % of control | 46 % of control | 98 % of control | – | – |
| hsa-miR-489 (guide GUGACAUCACAUAUACGGCAGC; chemistry not given here; listed as Homo sapiens) | 5 % of control | 40 % of control | 4 % of control | 43 % of control | 33 % of control | – | – |
| hsa-miR-876-3p (guide UGGUGGUUUACAAAGUAAUUCA; chemistry not given here; listed as Homo sapiens) | 6 % of control | 94 % of control | 6 % of control | 51 % of control | 48 % of control | – | – |
